Assay results taken from US20080312192A1, “Diaryl Urea Derivatives in the Treatment of Protein Kinase Dependent Diseases” (priority 2003, published 2008).

How the values were obtained:
[1] = target: T1, Flt-3 (Homo sapiens, UniProt P36888); assay: Flt-3 kinase inhibition (GST-Flt-3, 33P incorporation into poly(Glu,Tyr)); type: biochemical
T1 construct: amino acids 563-993 of the cytoplasmic kinase domain of human Flt-3; made in house; host or cells: Sf9 insect cells (baculovirus, vector pFbacG01)
T1 sequence (P36888 563-993): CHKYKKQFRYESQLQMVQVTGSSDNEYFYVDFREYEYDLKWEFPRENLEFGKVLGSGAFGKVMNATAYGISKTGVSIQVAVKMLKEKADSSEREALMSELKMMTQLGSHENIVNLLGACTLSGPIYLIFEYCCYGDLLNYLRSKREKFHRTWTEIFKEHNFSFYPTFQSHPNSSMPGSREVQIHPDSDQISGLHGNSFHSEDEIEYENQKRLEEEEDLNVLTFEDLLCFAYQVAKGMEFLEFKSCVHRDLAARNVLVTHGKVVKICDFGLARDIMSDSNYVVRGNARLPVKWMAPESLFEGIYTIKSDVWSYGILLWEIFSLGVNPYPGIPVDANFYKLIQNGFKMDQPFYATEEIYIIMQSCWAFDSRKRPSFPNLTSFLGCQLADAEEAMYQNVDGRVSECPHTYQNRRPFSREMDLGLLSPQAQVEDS
Description: Flt-3 kinase inhibition is determined as follows: The baculovirus donor vector pFbacG01 (GIBCO) is used to generate a recombinant baculovirus expressing the amino acid region amino acids 563-993 of the cytoplasmic kinase domain of human Flt-3. The coding sequence for the cytoplasmic domain of Flt-3 is amplified by PCR from human c-DNA libraries (Clontech). The amplified DNA fragments and the pFbacG01 vector are made compatible for ligation by digestion with BamHI and HindIII. Ligation of these DNA fragments results in the baculovirus donor plasmid pFbacG01-Flt-3. The production of the viruses, the expression of proteins in Sf9 cells and the purification of the GST-fused proteins are performed as follows:
Production of virus: The baculovirus donor plasmid (pFbacG01-Flt-3) containing the Flt-3 kinase domain is transfected into the DH10Bac cell line (GIBCO) and the transfected cells are plated on selective agar plates. Colonies without insertion of the fusion sequence into the viral genome (carried by the bacteria) are blue. Single white colonies are picked and viral DNA (bacmid) is isolated from the bacteria by standard plasmid purification procedures. Sf9 or Sf21 cells (American Type Culture Collection) are then transfected in flasks with the viral DNA using Cellfectin reagent.
Protein expression in Sf9 cells: Virus containing media is collected from the transfected cell culture and used for infection to increase its titre. Virus containing media obtained after two rounds of infection is used for large-scale protein expression. For large-scale protein expression 100 cm^2 round tissue culture plates are seeded with 5×10^7 cells/plate and infected with 1 mL of virus-containing media (approx. 5 MOIs). After 3 days the cells are scraped off the plate and centrifuged at 500 rpm for 5 min. Cell pellets from 10-20, 100 cm^2 plates are resuspended in 50 mL of ice-cold lysis buffer (25 mM Tris-HCl, pH 7.5, 2 mM EDTA-1% NP-40. 1 mM DTT, 1 mM PMSF). The cells are stirred on ice for 15 min and then centrifuged at 5000 rpms for 20 min.
Purification of GST-tagged protein: The centrifuged cell lysate is loaded onto a 2 mL glutathione-sepharose column (Pharmacia) and washed three times with 10 mL of 25 mM Tris-HCl, pH 7.5, 2 mM EDTA, 1 mM DTT, 200 mM NaCl. The GST-tagged protein is then eluted by 10 applications (1 mL each) of 25 mM Tris-HCl, pH 7.5, 10 mM reduced-glutathione, 100 mM NaCl, 1 mM DTT, 10% Glycerol and stored at −70° C.
Measurement of enzyme activity: Tyrosine protein kinase assays with purified GST-Flt-3 protein are carried out in a final volume of 30 μL containing 200-1800 ng of enzyme protein (depending on the specific activity), 20 mM Tris-HCl, pH 7.6, 3 mM MnCl2, 3 mM MgCl2, 1 mM DTT, 10 μM Na3VO4, 3 μg/mL poly(Glu, Tyr) 4:1, 1% DMSO, 8.0 μM ATP and 0.1 μCi [γ^33 P] ATP. The activity is assayed in the presence or absence of inhibitors, by measuring the incorporation of ^33P from [γ^33P] ATP into the poly(Glu,Tyr) substrate. The assay (30 μL) is carried out in 96-well plates at ambient temperature for 20 min and terminated by the addition of 20 μL of 125 mM EDTA. Subsequently, 40 μL of the reaction mixture is transferred onto Immobilon-PVDF membrane (Millipore, Bedford, Mass., USA) previously soaked for 5 min with methanol, rinsed with water, then soaked for 5 min with 0.5% H3PO4 and mounted on vacuum manifold with disconnected vacuum source. After spotting all samples, vacuum is connected and each well rinsed with 200 μL 0.5% H3PO4. Membranes are removed and washed 4× on a shaker with 1.0% H3PO4, once with ethanol. Membranes are counted after drying at ambient temperature, mounting in Packard TopCount 96-well frame, and addition of 10 μL/well of Microscint™ (Packard). IC50 values are calculated by linear regression analysis of the percentage inhibition of each compound in duplicate, at four concentrations (usually 0.01, 0.1, 1 and 10 μM). One unit of protein kinase activity is defined as 1 nmole of ^33P transferred from [γ3P] […]

Row | SMILES | IC50 [1] | melting point
1 | Nc1cc(Oc2ccc(NC(=O)Nc3ccc(CN4CCNCC4)c(C(F)(F)F)c3)cc2)ncn1 [Example 19-1, N-[4-(6-Amino-pyrimidin-4-yloxy)-phenyl]-N′-[4-(4-H-piperazin-1-ylmethyl)-5-trifluoromethyl-phenyl]-urea] | 38 nM | 153 to 155 °C
2 | CNc1cc(Oc2ccc(NC(=O)Nc3ccc(CN4CCNCC4)c(C(F)(F)F)c3)cc2)ncn1 [Example 19-2, N-[4-(6-Methylamino-pyrimidin-4-yloxy)-phenyl]-N′-[4-(4-H-piperazin-1-ylmethyl)-5-trifluoromethyl-phenyl]-urea] | 80 nM | 197 to 198 °C
3 | Cc1ncn(Cc2ccc(NC(=O)Nc3ccc(Oc4cc(Cl)ncn4)cc3)cc2C(F)(F)F)c1C [Example 23, N-[4-(6-Chloro-pyrimidin-4-yloxy)-phenyl]-N′-[4-(4,5-dimethylimidazol-1-ylmethyl)-3-trifluoromethyl-phenyl]-urea] | 1300 nM | 195 to 196 °C
4 | Cc1nccn1Cc1ccc(NC(=O)Nc2ccc(Oc3cc(Cl)ncn3)cc2)cc1C(F)(F)F [Example 24, N-[4-(6-Chloro-pyrimidin-4-yloxy)-phenyl]-N′-[4-(2-methylimidazol-1-ylmethyl)-3-trifluoromethyl-phenyl]-urea] | 170 nM | 228 °C
5 | Nc1cc(Oc2ccc(NC(=O)Nc3ccc(-c4cccnc4)c(C(F)(F)F)c3)cc2)ncn1 [Example 58, 1-[4-(6-Amino-pyrimidin-4-yloxy)-phenyl]-3-(4-pyridin-3-yl-3-trifluoromethyl-phenyl)-urea] | 120 nM | 132 to 135 °C
6 | Nc1cc(Oc2ccc(NC(=O)Nc3ccc(-c4ccncc4)c(C(F)(F)F)c3)cc2)ncn1 [Example 59, 1-[4-(6-Amino-pyrimidin-4-yloxy)-phenyl]-3-(4-pyridine-4-yl-3-trifluoromethyl-phenyl)-urea] | 76 nM | 131 to 135 °C
7 | Cc1cccc(-c2ccc(NC(=O)Nc3ccc(Oc4cc(N)ncn4)cc3)cc2C(F)(F)F)n1 [Example 60, 1-[4-(6-Amino-pyrimidin-4-yloxy)-phenyl]-3-[4-(6-methyl-pyridin-2-yl)-3-trifluoromethyl-phenyl]-urea] | 160 nM | 130 to 133 °C
8 | CNc1cc(Oc2ccc(NC(=O)Nc3ccc(-c4ccccn4)c(C(F)(F)F)c3)cc2)ncn1 [Example 61, 1-[4-(6-Methylamino-pyrimidin-4-yloxy)-phenyl]-3-(4-pyridin-2-yl-3-trifluoromethyl-phenyl)-urea] | 490 nM | 114 to 118 °C
9 | CNc1cc(Oc2ccc(NC(=O)Nc3ccc(-c4cccnc4)c(C(F)(F)F)c3)cc2)ncn1 [Example 62, 1-[4-(6-Methylamino-pyrimidin-4-yloxy)-phenyl]-3-(4-pyridin-3-yl-3-trifluoromethyl-phenyl)-urea] | 160 nM | 118 to 123 °C
10 | CNc1cc(Oc2ccc(NC(=O)Nc3ccc(-c4ccncc4)c(C(F)(F)F)c3)cc2)ncn1 [Example 63, 1-[4-(6-Methylamino-pyrimidin-4-yloxy)-phenyl]-3-(4-pyridin-4-yl-3-trifluoromethyl-phenyl)-urea] | 140 nM | 127 to 130 °C
11 | CNc1cc(Oc2ccc(NC(=O)Nc3ccc(-c4cccc(C)n4)c(C(F)(F)F)c3)cc2)ncn1 [Example 64, 1-[4-(6-Methylamino-pyrimidin-4-yloxy)-phenyl]-3-[4-(6-methyl-pyridin-2-yl)-3-trifluoromethyl-phenyl]-urea] | 340 nM | 106 to 109 °C
